{"source": "paper PMC9725750", "about": "“The clinical pharmacology of tafenoquine in the radical cure of Plasmodium vivax malaria: An individual patient data meta-analysis” (eLife, 2022)", "key": {"[1]": {"experiment": "Tolerability and safety: acute vomiting, severe haemolysis, haemoglobin change", "format": "in vivo, human", "conditions": "for Hb change to day 2/3 / Hb change to day 7±1: mean (sd)", "experimental": "For tolerability, acute vomiting was defined as vomiting within 1 hr of tafenoquine dosing, and for safety, three definitions of severe haemolysis were assessed:\n• Relative fall in haemoglobin by more than 25% to <7 g/dL • Absolute fall in haemoglobin greater than 5 g/dL • Any haemoglobin fall to <5 g/dL\nTolerability and safety events were categorised according to tafenoquine treatment and doses (no tafenoquine, <3.75 mg/kg tafenoquine, [3.75,6.25) mg/kg tafenoquine, [6.25,8.75) mg/kg tafenoquine, ≥8.75 mg/kg tafenoquine). The change in haemoglobin concentration from day 0 to the minimum on day 2 or 3, the expected day of nadir ([Commons et al., 2019]), was calculated to assess changes in haemoglobin associated with tafenoquine dose. Mixed effects models were used to explore the association between tafenoquine mg/kg dose, day 7 MetHb concentration, AUC[0,∞) , Cmax, and t1/2 adjusting for age, sex, day 0 parasite density and day 0 haemoglobin, with random effects for study and site."}, "Plasmodium vivax": {"tested_on": "Plasmodium vivax", "experiment": "Radical cure efficacy: any P. vivax recurrence within 4 months in patients, pooled DETECTIVE part 1/2 and GATHER (logistic regression and Emax models)", "format": "in vivo, human", "conditions": "for mean recurrence proportion: empirical weight distribution", "text": "The primary endpoint for the main efficacy analyses was any P. vivax recurrence within 4 months. We chose the binary endpoint of any recurrence rather than the time to first recurrence because tafenoquine has both asexual stage antimalarial activity ([Fukuda et al., 2017]) and hypnozoiticidal activity. […] The choice of a particular cut-off for follow-up is thus a trade-off between sensitivity and specificity. Longer follow-up will increase the sensitivity of the endpoint (include more relapses) but decrease specificity (include more reinfections).\nFor all predictors we fitted Bayesian mixed effects logistic regression models (random intercepts for study and study site), with adjustment for day 0 parasitaemia (log transformed). Logistic regression allows inference of the odds-ratio for recurrence for the predictive variable of interest, assuming a linear relationship between the predictive variable and log-odds for recurrence.\nFor the mg/kg dose (the primary predictor of interest), the dose-response relationship was then assessed under a Bayesian Emax model, where the dose-dependent logit probability of recurrence is defined as: Emax(d,x)=α+βx+δd^k/d^k+γ^k,\nThe Emax model was also fitted with random intercepts for study and study site.\nTo determine the main predictors of recurrence, we fitted a multivariable penalised Bayesian logistic regression model. This included the following variables as predictors: the tafenoquine mg/kg dose; the plasma tafenoquine AUC[0,∞); the plasma tafenoquine Cmax; the day 7 MetHb concentration (%); the terminal elimination half-life t1/2; and the baseline parasite density. The model included random intercept terms for each study and study site. […] To avoid convergence issues resulting from the co-linearity of the predictors, the prior on all non-hierarchical coefficients was set to a Normal(0,0.5). This prior effectively shrinks the regression coefficients towards zero. It can be interpreted as follows: plausible odds-ratios for recurrence for one standard deviation change for each of the fixed effect predictors lie approximately between 0.38 and 2.7).\nIn a priori sensitivity analyses, all recurrences up until 6 months were included as both binary and time to event outcomes. The time to first recurrence was defined as a P. vivax episode between day 7 and day 180 with right censoring at the last recorded visit. We also re-ran the same models in patients who received a 300 mg single dose of tafenoquine only (i.e. the current recommended treatment)."}, "[2]": {"design": "method as in Shanks et al., 2001", "conditions": "ref Shanks et al., 2001, cited from earlier work"}, "[3]": {"conditions": "cited from earlier work"}, "[4]": {"conditions": "all tafenoquine-treated patients"}}, "data": [{"compound": "COc1cc(C)c2c(Oc3cccc(C(F)(F)F)c3)c(OC)cc(NC(C)CCCN)c2n1", "note": "(centres unmarked) [tafenoquine]", "values": [{"measurement": "additional mean haemoglobin reduction at day 2 or 3", "setting": "[1]; 300 mg dose in a 60 kg adult", "result": "around 0.1 g/dL"}, {"measurement": "additional mean reduction in Hb at day 2 or 3, relative", "setting": "[1]; 300 mg dose in a 60 kg adult", "result": "< 1", "unit": "%"}, {"measurement": "patients who vomited within 1 hour of oral administration", "setting": "[1]; 15/651 patients", "result": 2.3, "unit": "%"}, {"measurement": "haemoglobin increase per one day increase in terminal elimination half-life", "setting": "[1]; 95% CI 0.01 to 0.04", "result": 0.02, "unit": "g/dL"}, {"measurement": "OR for vomiting per mg/kg increase", "setting": "[1]; 95% CI 0.88–1.32", "result": 1.08}, {"measurement": "change in haemoglobin concentration per one percent increase in day 7 MetHb", "setting": "[1]; Hb on day 2 or 3, 95% CI –0.12 to –0.03", "result": "–0.08 g/dL"}, {"measurement": "Absolute Hb fall >5 g/dL", "setting": "[1]; TQ 3.75-<6.25mg/kg, n=378", "result": "1 (0.3%) n (%)"}, {"measurement": "Hb fall >25% to<7 g/dL", "setting": "[1]; TQ 3.75-<6.25mg/kg, n=378", "result": "0 (0%) n (%)"}, {"measurement": "Hb fall to <5 g/dL", "setting": "[1]; TQ 3.75-<6.25mg/kg, n=378", "result": "0 (0%) n (%)"}, {"measurement": "Absolute Hb fall >5 g/dL", "setting": "[1]; TQ 6.25-<8.75mg/kg, n=56", "result": "0 (0%) n (%)"}, {"measurement": "Hb fall >25% to<7 g/dL", "setting": "[1]; TQ 6.25-<8.75mg/kg, n=56", "result": "0 (0%) n (%)"}, {"measurement": "Hb fall to <5 g/dL", "setting": "[1]; TQ 6.25-<8.75mg/kg, n=56", "result": "0 (0%) n (%)"}, {"measurement": "Absolute Hb fall >5 g/dL", "setting": "[1]; TQ <3.75mg/kg, n=171", "result": "0 (0%) n (%)"}, {"measurement": "Hb fall >25% to<7 g/dL", "setting": "[1]; TQ <3.75mg/kg, n=171", "result": "0 (0%) n (%)"}, {"measurement": "Hb fall to <5 g/dL", "setting": "[1]; TQ <3.75mg/kg, n=171", "result": "0 (0%) n (%)"}, {"measurement": "Absolute Hb fall >5 g/dL", "setting": "[1]; TQ > 8.75mg/kg, n=44", "result": "0 (0%) n (%)"}, {"measurement": "Hb fall >25% to<7 g/dL", "setting": "[1]; TQ > 8.75mg/kg, n=44", "result": "0 (0%) n (%)"}, {"measurement": "Hb fall to <5 g/dL", "setting": "[1]; TQ > 8.75mg/kg, n=44", "result": "0 (0%) n (%)"}, {"measurement": "patients with a fall in Hb to less than 5 g/dL", "setting": "[1]; [4]", "result": "no patients"}, {"measurement": "patients with greater than 5 g/dL fall in Hb", "setting": "[1]; [4]", "result": "One patient"}, {"measurement": "patients with greater than 25% fall in Hb to <7 g/dL", "setting": "[1]; [4]", "result": "no patients"}, {"measurement": "mean haemoglobin reduction at day 2 or 3", "setting": "[1]; dose increased to 450 mg", "result": 0.15, "unit": "g/dL"}, {"measurement": "Hb change to day 2/3", "setting": "[1]; TQ 3.75-<6.25mg/kg, n=378", "result": "–0.7 (0.9)"}, {"measurement": "Hb change to day 7±1", "setting": "[1]; TQ 3.75-<6.25mg/kg, n=378", "result": "–0.4 (1.1)"}, {"measurement": "Hb change to day 2/3", "setting": "[1]; TQ 6.25-<8.75mg/kg, n=56", "result": "–0.8 (0.8)"}, {"measurement": "Hb change to day 7±1", "setting": "[1]; TQ 6.25-<8.75mg/kg, n=56", "result": "–0.4 (1.0)"}, {"measurement": "Hb change to day 2/3", "setting": "[1]; TQ <3.75mg/kg, n=171", "result": "–0.6 (0.9)"}, {"measurement": "Hb change to day 7±1", "setting": "[1]; TQ <3.75mg/kg, n=171", "result": "–0.3 (0.9)"}, {"measurement": "Hb change to day 2/3", "setting": "[1]; TQ > 8.75mg/kg, n=44", "result": "–0.6 (1.1)"}, {"measurement": "Hb change to day 7±1", "setting": "[1]; TQ > 8.75mg/kg, n=44", "result": "–0.3 (1.3)"}, {"measurement": "haemoglobin change at day 2 or 3 per additional mg/kg of tafenoquine", "setting": "[1]; mixed effects linear regression, 95% CI –0.04 to 0.00, P=0.02", "result": "–0.02 g/dL"}, {"measurement": "reduction of recurrence rates", "setting": "Plasmodium vivax; 300 mg fixed dose vs no 8-aminoquinoline treatment", "result": "around 70%"}, {"measurement": "reduction of recurrence rates", "setting": "Plasmodium vivax; 450 mg fixed dose vs no 8-aminoquinoline treatment", "result": "around 85%"}, {"measurement": "mean recurrence proportion", "setting": "Plasmodium vivax; 450 mg fixed dose, 95% CI 3.2–11.5", "result": 6.2, "unit": "%"}, {"measurement": "mean estimated recurrence proportion at 4 months", "setting": "Plasmodium vivax; Emax model, 3 mg/kg", "result": 28.5, "unit": "%"}, {"measurement": "mean estimated recurrence proportion at 4 months", "setting": "Plasmodium vivax; Emax model, 4 mg/kg", "result": 20.8, "unit": "%"}, {"measurement": "mean estimated recurrence proportion at 4 months", "setting": "Plasmodium vivax; Emax model, 5 mg/kg", "result": 14.2, "unit": "%"}, {"measurement": "proportion of the maximal obtainable hypnozoiticidal effect", "setting": "Plasmodium vivax; Emax model, 300 mg dose in a 60 kg adult (5 mg/kg)", "result": 70, "unit": "%"}, {"measurement": "reduction in the risk of P. vivax recurrence", "setting": "Plasmodium vivax; Emax model, dose 7.5 mg/kg (i.e. 450 mg)", "result": 90, "unit": "%"}, {"measurement": "proportion of the effect achieved with 15 mg/kg", "setting": "Plasmodium vivax; Emax model, dose of approximately 7.5 mg/kg, 15 mg/kg taken as maximum tolerated single dose", "result": 90, "unit": "%"}, {"measurement": "Recurrence at 4 months", "setting": "Plasmodium vivax; TQ <3.75 mg/kg single dose + chloroquine, n=169", "result": "57 (33.7) total number (%)"}, {"measurement": "Recurrence at 4 months", "setting": "Plasmodium vivax; TQ [3.75,6.25) mg/kg single dose + chloroquine, n=368", "result": "79 (21.5) total number (%)"}, {"measurement": "Recurrence at 4 months", "setting": "Plasmodium vivax; TQ [6.25,8.75) mg/kg single dose + chloroquine, n=54", "result": "4 (7.4) total number (%)"}, {"measurement": "Recurrence at 4 months", "setting": "Plasmodium vivax; TQ ≥8.75 mg/kg single dose + chloroquine, n=43, 8.75 mg/kg", "result": "No recurrences"}, {"measurement": "Recurrence at 4 months", "setting": "Plasmodium vivax; TQ ≥8.75 mg/kg single dose + chloroquine, n=43, listed as TQ, 8.75 mg/kg", "result": "0 (0) total number (%)"}, {"measurement": "number needed to treat to prevent one additional recurrence of malaria", "setting": "Plasmodium vivax; adult dose increased from 300 mg to 450 mg, Emax model, 95% CI 7–21", "result": 11, "unit": "patients"}, {"measurement": "effect on recurrence rates at 4 months of increasing dosing recommendation from 300mg to 450mg", "setting": "Plasmodium vivax; body weight distribution as in pre-registration trials", "result": "more than halve"}, {"measurement": "OR for recurrence per mg/kg increase", "setting": "Plasmodium vivax; data from DETECTIVE part 1 only, 95% CI 0.52–0.72", "result": 0.62}, {"measurement": "mean recurrence proportion", "setting": "Plasmodium vivax; fixed 300 mg dose in an adult, 95% CI 9.6–21.7", "result": 15.3, "unit": "%"}, {"measurement": "mean probability of recurrence at 4 months", "setting": "Plasmodium vivax; logistic model estimate, following 5 mg/kg tafenoquine, 95% CI 0.10–0.23", "result": 0.15}, {"measurement": "odds-ratio (OR) for recurrence within 4 months per additional mg/kg of tafenoquine", "setting": "Plasmodium vivax; logistic regression, all data n=1073, 95% CI 0.65–0.76", "result": 0.70}, {"measurement": "odds ratio for recurrence per absolute percentage point increase in the day 7 MetHb concentration", "setting": "Plasmodium vivax; logit-Emax model adjusted for mg/kg dose, 95% CI 0.65 to 0.99", "result": 0.81}, {"measurement": "OR for recurrence within 4 months per mg/kg tafenoquine", "setting": "Plasmodium vivax; restricted to patients who received 300 mg dose, n=469, 95% CI 0.51–0.85", "result": 0.66}, {"measurement": "odds ratio for recurrence at 4 months for each day increase in t1/2", "setting": "Plasmodium vivax; weight-adjusted t1/2, adjusted for mg/kg dose, 95% CI 1.06–1.25", "result": 1.15}, {"measurement": "haemolytic outcome", "setting": "[2]; female heterozygous for G6PD deficiency (A- variant), total dose 1200 mg over 3 days", "result": "severe haemolytic reaction"}, {"measurement": "drop in haemoglobin", "setting": "[2]; homozygous G6PD deficient female (A- variant), 1200 mg over 3 days, remained asymptomatic", "result": "~3", "unit": "g/dL"}, {"measurement": "route of elimination", "setting": "[3]; ref Brueckner et al., 1998", "result": "eliminated via biliary excretion with enterohepatic recirculation, but is not eliminated in the urine"}, {"measurement": "persistence of plasma concentrations above a plausible minimum inhibitory concentration for the asexual activity", "setting": "[3]; ref Dow and Smith, 2017", "result": "up to three months"}, {"measurement": "terminal elimination half-life", "setting": "[3]; ref Thakkar et al., 2018", "result": "about 15 days"}]}]}
